Laboratory results reported in US20240075004A1, “VERY-LONG-CHAIN POLYUNSATURATED FATTY ACIDS, ELOVANOID HYDROXYLATED DERIVATIVES, AND METHODS OF USE” (The Board of Supervisors of Louisiana State University and …, priority 2020, published 2024).

Key:
RPE and PRC = test: Subretinal injection of OAβ in WT mice: fundus/OCT and ZO-1 whole flat mount of RPE; format: in vivo, C57BL/6J WT mice; conditions: OAβ-injected retina, 10 μM subretinal, 7 days; non-injected retina 105 μm
Description: All animal experiments were performed according to ARVO Statement for the Use of Animals in Ophthalmic and Vision Research, and the protocol was approved by LSU Health New Orleans' Institutional Animal Care and Use Committee (IACUC). 6-month-old 5×FAD mice (stock number: 34848-JAX, The Jackson Laboratory, Bar Harbor, ME, USA), co-overexpress FAD mutant forms of human amyloid precursor protein (the Swedish mutation: K670N, M671L; the Florida mutation: I716V; and the London mutation: V7171) and presenilin 1 (PS1, encoded by Psen1: M146L, L286V) transgenes under transcriptional control of the neuron-specific mouse Thy1 promoter. 5×FAD mice were hemizygotes with respect to the transgenes and non-transgenic WT littermates. Genotyping was performed by PCR of tail DNA. All analyses were carried out blind with respect to the mice genotype. For the subretinal injection, 6-month-old C57BL/6J mice were anesthetized by an intraperitoneal injection of ketamine/xylazine, pupils dilated with 1.0% tropicamide (Akorn, IL, USA); and 0.5% Proparacaine Hydrochloride (Akorn) was applied for topical anesthesia. Eyes were punctured with a 30-gauge needle between the corneoscleral junction and the ora serrata into the vitreous cavity without disturbing the lens. Compounds were delivered to the subretinal region using a 33-gauge blunt needle attached to a 5 μl Hamilton syringe (Hamilton Company, Reno, NV, USA) under a dissecting microscope. Non-injected mice were used as negative control while the PBS injected mice were used for sham. The injection volume was 2 μl containing PBS, 10 μM of OAβ, 10 μM of OAβ+200 ng ELV-N-32, 200 ng ELV-N-32 alone, 10 μM of OAβ+200 ng ELV-N-34 or 200 ng ELV-N-34 alone (n=12/group). All groups received topical drops: PBS only or ELV-N-32 (200 nM) or ELV-N-34 (200 nM), twice a day for 3 or 7 days.
For the whole mount RPE staining, eyeballs were enucleated and pre-fixed in 4% PFA for 15 min. Then the eye cup containing RPE sheet were fixed in 4% PFA for 30 min, washed in PBS 3× following the blocking step for 1 h at room temperature. The immunostaining was performed by incubating primary antibody (ZO-1) for 48 h at 4° C. Then the eye cups were washed 3× with PBS and incubated with the secondary antibody for 12 h at 4° C. The primary human RPE cells as well as mouse eye cups were embedded in ProLong™ Gold Antifade Mounting medium (Thermo Fisher Scientific) between two glass coverslips. Pictures were taken with Olympus FV1200 microscope (Olympus, Japan). Images were analyzed by software ImageJ (rsb.info.nih.gov/ij/).
7 days post-injection, mice were anesthetized with ip ketamine/xylazine, pupil dilated by topical 1.0% tropicamide and placed in a custom-built holder for OCT imaging (body temperature maintained at 38° C. with a heat pad). Retinas were imaged along the horizontal meridian through the optic nerve head using a Heidelberg Spectralis HRA OCT system (Heidelberg Engineering, Heidelberg, Germany). Axial resolution is […]. The raw OCT B-scans cross-sectional images were exported with the scale in m and opened in ImageJ (http//imagej.nih.gov/ij). The PRC layer thickness was defined as the width from the tip of the outer nuclear layer, right after the outer plexiform layer, to the outer segments of PRC. Three measurements were made on the same scan and averaged. Mean and standard error of the mean (SEM) were calculated (n=4/group). Students' T-test was used to calculate statistical significance and a P-value less than 0.05 was considered significant.

human RPE cells = test: Oxidative-stress and Erastin induced cell death in human RPE cells; format: cell-based
[1] = test system: pro-inflammatory transcriptome and pro-homeostatic pathways in RPE single-cells; test: UOS transcriptome in RPE single-cells; format: cell-based; conditions: 96 per sample
Description: Dots in box plots represent expression of the gene for a single RPEC (total of 96 per sample). P<0.001 (***), P<0.01 (**), One-way Anova, with Post-Hoc Tukey HSD test for multiple comparisons.

HNEpC = HNEpC challenged with HDM: SPiDER β-galactosidase staining; format: cell-based, human; conditions: 500 nM; HDM 30 μg/ml
Description: ELVN-34 protects HNEpC from the senescence-associated secretory phenotype (SASP response). Representative images of HNEpC stained with Hoechst 33342 and spider β-galactosidase—(Panel A) untreated (Control), (Panel B) challenged with HDM (30 μg/ml), and (Panel C) HNEpC treated with HDM and ELVN-34:6 Na (500 nM). (Panel D) Quantitative assessment of increased SASP response (measured by the spider β-galactosidase staining) upon HDM exposure (30 μg/ml). ELVN-34:6 Na (500 nM) treatment reduces the number of beta-gal positive HNEpC induced by HDM. […] (*p<0.05).
Cryopreserved human nasal epithelial cells HNEpC were purchased from PromoCell GmbH, Heidelberg, Germany. (Catalog #C-1260, Lot #436Z028).
The cells used for our experiments are primary nasal epithelial cells obtained from the nasal mucosa of a person.
Cells were received in passage (P1) and were sub-culture to passage (P3), which were used for all the experiments.
HNEpC were grown to 80% confluency in Promocell's Airway epithelial cell growth medium (Catalog #C-21060) which was supplemented with airway epithelial cell growth medium supplement pack (Catalog #C-39160) and Penicillin/Streptomycin.

OAβ: Aβ (1-42) oligomerized for 24 h at 4° C.; cytotoxic challenge injected subretinally or added to cells [reference compound]
PRC layer thickness (OCT) (RPE and PRC): 35 μm

CC/C=C\C[C@H](O)\C=C/C=C/C=C/[C@H](O)C/C=C\C/C=C\CCC(=O)O [NPD1, 10R,17S-dihydroxy-docosa-4Z,7Z,11E,13E,15Z,19Z-hexaenoic acid, reference compound]
oxidative-stress and Erastin induced cell deaths (human RPE cells): counteracted | UOS up-regulation of pro-inflammatory transcriptome and down-regulation of pro-homeostatic pathways [1]: suppress these changes

CC/C=C\C[C@H](O)\C=C/C=C/C=C/[C@H](O)C/C=C\C/C=C\CCCCCCCCCCCCCCC(=O)[O-].[Na+] [ELVN-34:6 Na, sodium (16Z,19Z,22R,23E,25E,27Z,29S,31Z)-22,29-dihydroxytetratriaconta-16,19,23,25,27,31-hexaenoate]
number of beta-gal positive HNEpC (SASP response, spider β-galactosidase staining) (HNEpC): reduces
